Laboratory results from ChEMBL document CHEMBL6134903, “Challenging triple negative breast cancer through HDAC6 selective inhibition: Novel cap-group identification, structure-activity relationships, computational and biological studies” (Eur J Med Chem, 2025).

Experiments:
[1] = Cytotoxicity against human HeLa cells assessed as reduction in cell viability incubated for 72 hrs by CellTiter Glo assay; type: toxicity, cell-based
physchem = settings: MeOH/H2O, pH 7
Description: Solubility of the compound in MeOH/H20 at pH 7 incubated for 24 hrs by LC-MS/MS analysis

SMILES | IC50 at 72 h [1] [nM] | CC50 at 72 h [1] [nM] | solubility at 24 h (physchem) [µg/mL]
O=C(/C=C/c1ccc(CN(CCO)CCc2c[nH]c3ccccc23)cc1)NO [DACINOSTAT] | 30.8 | 30 | –
Cc1[nH]c2ccccc2c1CCNCc1ccc(/C=C/C(=O)NO)cc1 [PANOBINOSTAT] | 10.9 | 11 | –
CN1CCc2c(c3ccccc3n2Cc2ccc(C(=O)NO)cc2)C1 [TUBASTATIN A] | – | – | < 1000
